target: T1, T-cell protein tyrosine phosphatase (TCPTP) (Homo sapiens, UniProt P17706); assay: TCPTP inhibition assay (selectivity); type: biochemical; settings: 20 μM compound, 2% DMSO
T1 sequence (P17706 1-415): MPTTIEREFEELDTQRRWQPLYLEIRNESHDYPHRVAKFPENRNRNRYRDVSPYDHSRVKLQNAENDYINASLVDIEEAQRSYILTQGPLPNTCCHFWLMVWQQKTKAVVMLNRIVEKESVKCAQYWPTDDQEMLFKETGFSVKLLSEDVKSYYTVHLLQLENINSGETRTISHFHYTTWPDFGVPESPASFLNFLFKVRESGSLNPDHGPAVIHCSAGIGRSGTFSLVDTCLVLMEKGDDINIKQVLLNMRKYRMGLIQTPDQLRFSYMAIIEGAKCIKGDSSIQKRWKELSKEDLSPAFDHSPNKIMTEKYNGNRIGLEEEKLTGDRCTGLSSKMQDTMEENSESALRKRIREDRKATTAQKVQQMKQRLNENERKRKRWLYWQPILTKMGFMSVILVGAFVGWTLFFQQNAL
Procedure: The selectivity of all the PTP1B inhibitory compounds was also evaluated against TCPTP.

Compound	inhibition at 20 µM [%]	% Inhibition (20 μM) on TCPTP [%]
CCc1ccc(-c2noc(Cc3c[nH]c4ccccc34)n2)cc1 [10e]	15.8	
CCCCCCc1ccc(-c2nc(Cc3c[nH]c4ccccc34)no2)cc1 [14c]		54.18

Further lines, results first:

inhibition at 20 µM [%]	% Inhibition (20 μM) on TCPTP [%]	Compound
9.22		CCc1ccc(-c2nc(Cc3c[nH]c4ccccc34)no2)cc1 [14a]
	50.31	CCCCc1ccc(-c2nc(Cc3c[nH]c4ccccc34)no2)cc1 [14b]
	25.52	c1ccc2c(Cc3noc(C4CCC4)n3)c[nH]c2c1 [14l]
	11.68	c1ccc2c(Cc3noc(C4CCCCC4)n3)c[nH]c2c1 [14n]
	34.51	Brc1ccc2[nH]cc(Cc3nc(Cc4c[nH]c5ccccc45)no3)c2c1 [14s]
	38.74	Clc1cccc2[nH]cc(Cc3nc(Cc4c[nH]c5ccccc45)no3)c12 [14u]

same assay, conditions: at the concentration of 20 μM

TCPTP inhibitory activity, in words	Compound
lowest inhibitory percentage	c1ccc2c(Cc3noc(C4CCCCC4)n3)c[nH]c2c1 [14n]

target: T2, PTP1B (Homo sapiens, UniProt P18031); assay: PTP1B inhibition assay with p-nitrophenyl phosphate (pNPP) as substrate; settings: not given
T2 sequence (P18031 1-435): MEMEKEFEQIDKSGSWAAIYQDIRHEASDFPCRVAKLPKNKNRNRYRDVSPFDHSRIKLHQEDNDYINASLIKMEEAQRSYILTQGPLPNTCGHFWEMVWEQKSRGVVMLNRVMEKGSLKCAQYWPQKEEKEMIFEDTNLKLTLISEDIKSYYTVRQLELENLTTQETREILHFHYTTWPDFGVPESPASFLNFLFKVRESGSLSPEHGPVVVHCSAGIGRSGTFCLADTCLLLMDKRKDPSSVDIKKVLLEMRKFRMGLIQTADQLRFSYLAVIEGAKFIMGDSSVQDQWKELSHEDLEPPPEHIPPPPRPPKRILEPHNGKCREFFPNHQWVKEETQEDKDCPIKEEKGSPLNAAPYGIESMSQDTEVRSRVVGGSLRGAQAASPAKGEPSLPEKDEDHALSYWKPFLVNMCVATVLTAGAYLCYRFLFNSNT

IC50 [µM]	Compound
16.8	CCc1ccc(-c2noc(Cc3c[nH]c4ccccc34)n2)cc1 [10e]
13.5 ± 0.6	CCc1ccc(-c2nc(Cc3c[nH]c4ccccc34)no2)cc1 [14a]

same assay, conditions: 20 μM compound, 2% DMSO, pNPP substrate

% Inhibition (20 μM) on PTP1B [%]	Compound
7.3 ± 6.8	NC(=NOC(=O)Cc1c[nH]c2ccccc12)c1ccccc1 [9a]
14.0 ± 4.3	NC(=NOC(=O)Cc1c[nH]c2ccccc12)c1ccc(F)cc1 [9b]
5.2 ± 1.8	NC(=NOC(=O)Cc1c[nH]c2ccccc12)c1ccc(Cl)cc1 [9c]
9.8 ± 7.1	NC(=NOC(=O)Cc1c[nH]c2ccccc12)c1ccc([N+](=O)[O-])cc1 [9d]
23.4 ± 3.7	CCc1ccc(C(N)=NOC(=O)Cc2c[nH]c3ccccc23)cc1 [9e]
2.4 ± 1.2	c1ccc(-c2noc(Cc3c[nH]c4ccccc34)n2)cc1 [10a]
19.8 ± 0.1	Fc1ccc(-c2noc(Cc3c[nH]c4ccccc34)n2)cc1 [10b]
40.0 ± 7.6	Clc1ccc(-c2noc(Cc3c[nH]c4ccccc34)n2)cc1 [10c]
44.5 ± 0.3	O=[N+]([O-])c1ccc(-c2noc(Cc3c[nH]c4ccccc34)n2)cc1 [10d]

same assay, conditions: read-out: % Inhibition (20 μM) on PTP1B

inhibition at 20 µM [%]	Compound
50.5 ± 1.1	CCc1ccc(-c2noc(Cc3c[nH]c4ccccc34)n2)cc1 [10e]
23.5 ± 2.6	N=C(N)NCCCCCNc1noc(Cc2c[nH]c3ccccc23)n1 [Phidianidine B (2), phidianidine B, reference compound]

same assay, conditions: read-out: IC50 on PTP1B; pNPP substrate; dose-response run when inhibition >50% at 20 μM

Compound	IC50 [µM]
CCc1ccc(C(=O)ON=C(N)Cc2c[nH]c3ccccc23)cc1 [13a]	> 20
CCCCCCc1ccc(C(=O)ON=C(N)Cc2c[nH]c3ccccc23)cc1 [13c]	> 20
NC(Cc1c[nH]c2ccccc12)=NOC(=O)c1ccccc1F [13d]	> 20
NC(Cc1c[nH]c2ccccc12)=NOC(=O)c1ccc(C(F)(F)F)cc1 [13e]	> 20
COc1ccc(C(=O)ON=C(N)Cc2c[nH]c3ccccc23)cc1 [13f]	> 20
COc1ccc(C(=O)ON=C(N)Cc2c[nH]c3ccccc23)c(Br)c1 [13g]	> 20
CCCCC(=O)ON=C(N)Cc1c[nH]c2ccccc12 [13h]	> 20
NC(Cc1c[nH]c2ccccc12)=NOC(=O)CCCCBr [13i]	> 20
CCCCCCc1ccc(-c2nc(Cc3c[nH]c4ccccc34)no2)cc1 [14c]	4.9 ± 0.8
COc1ccc(-c2nc(Cc3c[nH]c4ccccc34)no2)cc1 [14f]	> 20
c1ccc(-c2nc(Cc3c[nH]c4ccccc34)no2)nc1 [14o]	> 20

Results, then the compound that gave them:

IC50 [µM]	Compound
7.1 ± 0.1	CCCCc1ccc(-c2nc(Cc3c[nH]c4ccccc34)no2)cc1 [14b]
> 20	Fc1ccccc1-c1nc(Cc2c[nH]c3ccccc23)no1 [14d]
> 20	FC(F)(F)c1ccc(-c2nc(Cc3c[nH]c4ccccc34)no2)cc1 [14e]
> 20	COc1ccc(-c2nc(Cc3c[nH]c4ccccc34)no2)c(Br)c1 [14g]
> 20	CCCCc1nc(Cc2c[nH]c3ccccc23)no1 [14h]
> 20	CC(=O)OCCCCc1nc(Cc2c[nH]c3ccccc23)no1 [14i]
> 20	CC(C)c1nc(Cc2c[nH]c3ccccc23)no1 [14j]
> 20	ClC(Cl)c1nc(Cc2c[nH]c3ccccc23)no1 [14k]
8.6 ± 1.5	c1ccc2c(Cc3noc(C4CCC4)n3)c[nH]c2c1 [14l]
> 20	c1ccc2c(Cc3noc(C4CCCC4)n3)c[nH]c2c1 [14m]
5.3 ± 0.7	c1ccc2c(Cc3noc(C4CCCCC4)n3)c[nH]c2c1 [14n]
> 20	Fc1ccc2[nH]cc(Cc3nc(Cc4c[nH]c5ccccc45)no3)c2c1 [14q]
7.4 ± 0.1	Brc1ccc2[nH]cc(Cc3nc(Cc4c[nH]c5ccccc45)no3)c2c1 [14s]
9.7 ± 1.7	Clc1cccc2[nH]cc(Cc3nc(Cc4c[nH]c5ccccc45)no3)c12 [14u]

same assay, conditions: screened at 20 μM

PTP1B inhibitory activity, in words	Compound
no activity	Fc1ccccc1-c1nc(Cc2c[nH]c3ccccc23)no1 [14d]
disappearance of the inhibitory activity	CCCCc1nc(Cc2c[nH]c3ccccc23)no1 [14h]
disappearance of the inhibitory activity	CC(=O)OCCCCc1nc(Cc2c[nH]c3ccccc23)no1 [14i]
lack of activity	c1ccc2c(Cc3noc(C4CCCC4)n3)c[nH]c2c1 [14m]

Compound	PTP1B inhibitory activity, in words
COc1ccc(-c2nc(Cc3c[nH]c4ccccc34)no2)cc1 [14f]	no activity

From paper PMC5867641, “Function-Oriented Synthesis of Marine Phidianidine Derivatives as Potential PTP1B Inhibitors with Specific Selectivity” (Marine Drugs, 2018)
